In patent US11779628B2, “Use of cell-permeable peptide inhibitors of the JNK signal transduction pathway for the treatment of various diseases” (Xigen Inflammation Ltd., priority 2014, dated 2023):
Read-outs that look alike come from different tables or passages of the source. Non-standard residues stand in square brackets, D forms with d. No end group written: not given here.

How the values were obtained:
[1] = tested on: female Sprague-Dawley rats, CYP-induced cystitis; assay: CYP-induced acute cystitis, intravenous treatment; format: in vivo, rat; conditions: XG-102 2 mg/kg i.v. or ibuprofen 10 mg/kg i.v., 24 h post-CYP
Procedure: (§1) This preclinical model is well-used to test therapeutic approaches for the treatment of interstitial cystitis/painful bladder syndrome (IC/PBS).
(§2) Animals were acclimatized to the laboratory conditions for at least 3 days before the start of any experiments. The animals were allocated to the following four experimental groups (n=10 animals per group):
(§3) To induce acute cystitis, a single i.p. injection of CYP at a dose of 150 mg/kg in a final volume of 5 mL/kg was performed. Control rats received physiological saline under the same experimental conditions as CYP (final volume of 5 mL/kg, i.p.).
(§4) On the day of each experiment, weight of rats was recorded.
Standardized conditions including fixed time-of-day (a.m. to minimize the potential circadian variations in the behaviours responses) and single-experimenter testing of all animals were applied to minimize variability behavior-based pain testing. Visceral pain including allodynia and hyperalgesia was evaluated by applying to the lower abdomen, close to the urinary bladder, a set of 8 calibrated von Frey filaments of increasing forces (1, 2, 4, 6, 8, 10, 26 and 60 g) with an interstimulus interval of 5 seconds. Prior testing, the abdominal area designed for mechanical stimulation of each animal was shaved. […]

[2] = tested on: female Sprague-Dawley rats, CYP-induced cystitis; assay: CYP-induced acute cystitis, intravesical treatment; format: in vivo, rat; conditions: 50 mg/mL i.ves., 24 h post-CYP
Procedure: as §1, §2, §3, §4
Standardized conditions including fixed time-of-day (a.m. to minimize the potential circadian variations in the behaviours responses) and single-experimenter testing of all animals were applied to minimize variability behavior-based pain testing. Visceral pain including allodynia and hyperalgesia was evaluated by applying to the lower abdomen, close to the urinary bladder, a set of 8 calibrated von Frey filaments of increasing forces (1, 2, 4, 6, 8, 10, 26 and 60 g) with an interstimulus interval of 5 seconds. Prior testing, the abdominal area designed for mechanical stimulation of each animal was shaved. Animals were then placed on a raised wire mesh floor under individual transparent Plexiglas box and acclimatized for at least 30 minutes before starting the von Frey test. Filaments were then applied 1-2 seconds through the mesh floor with enough strength to cause the filament to slightly bend. Each filament was tested 3 times. Care was taken to stimulate different areas within the lower abdominal region in the vicinity of the urinary bladder to avoid desensitization.
Urinary bladders were rapidly collected and cleaned from lipoid tissue. […] Finally, wall thickness was measured using a digital caliper by placing the bladder wall between the two outside jaws.

[3] = tested on: patients after ocular surgery; assay: Clinical Phase II, post-surgery intraocular inflammation: safety
Procedure: The criteria for evaluation of safety were: • a. Visual acuity by ETDRS method • b. Slit Lamp examination findings • c. The results of the ophthalmic fundus examination • d. Intra Ocular Pressure (IOP) measurements • e. Vital signs (blood pressure (BP), pulse rate (PR) and rhythm) • f. The results of the hematology and chemistry laboratory tests • g. The occurrence of Adverse Events • h. Presence (or not) of XG-102 in plasma 1 hour after the administration of study treatment in a subset of patients (approximately 30).
An AE is therefore any unfavorable and unintended sign, symptom or disease temporally associated with the use of a medicinal product, whether or not considered related to the medicinal product.
A Suspected Unexpected Serious Adverse Reaction (SUSAR) was defined as a suspected adverse reaction related to the treatment that is both unexpected (i.e. not consistent with the expected outcomes of the study treatment being administered) and serious.
Patients were analyzed as treated, i.e. according to the treatment which they received. The safety set was the primary analysis set for the safety analysis.
The present study was a double-blind study. All patients who were randomized and for whom the sub-conjunctival injection was started are included in the safety analysis by dose group. […] If the study treatment eye drops were stopped prematurely (i.e. before day 21), the patients concerned continued follow-up until day 28, in accordance with the study protocol.
Investigators assessed (in a blinded manner) the relationship of each reported AE to any of the study treatments. An event was considered to be related to study treatment if the Investigator ticked either ‘possible’ or ‘probable’ as the reply to this question.

[4] = tested on: JNK; conditions: Dickens et al. 1997; cited from earlier work
[5] = tested on: TC-3 cell cultures; assay: Cellular import of fluorescein-labeled TAT and TAT-IB1(s) peptides; format: cell-based; conditions: fluorescein-labeled peptide 1 μM
Procedure: The ability of the L- and D-enantiomeric forms of TAT and TAT-IB1(s) peptides (“TAT-IB peptides”) to enter cells was evaluated. L-TAT, D-TAT, L-TAT-IB1(s), and D-TAT-IB1(s) peptides [SEQ ID NOs: 5, 6, 9 and 12, respectively] were labeled by N-terminal addition of a glycine residue conjugated to fluorescein. Labeled peptides (1 μM) were added to TC-3 cell cultures, which were maintained as described in Example 3. At predetermined times cells were washed with PBS and fixed for five minutes in ice-cold methanol-acetone (1:1) before being examined under a fluorescence microscope. Fluorescein-labeled BSA (1 μM, 12 moles/mole BSA) was used as a control.
Little to no signal was present at 48 hours.
Fluorescent signals from these all-D retro-inverso peptides were still very strong 1 week later, and the signal was only slightly diminished at 2 weeks post treatment.

[6] = tested on: TC-3 cells; assay: IL-1 induced pancreatic beta-cell death; format: cell-based; conditions: single addition 1 μM, two days with IL-1
Procedure: Inhibition of IL-1 induced pancreatic beta-cell death by the D-TAT-IB1(s) peptide was analyzed. […] Apoptotic cells were then counted after two days of incubation with IL-1 by use of Propidium Iodide and Hoechst 33342 nuclear staining. A minimum of 1,000 cells were counted for each experiment. Standard Error of the Means (SEM) are indicated, n=5. […] Long term inhibition of IL-1P induced cell-death by the D-TAT-IB1 peptide was also analyzed. […] Apoptotic cells were then counted after 15 days of incubation with IL-1 by use of propidium iodide and Hoechst 33342 nuclear staining. […] A minimum of 1.000 cells were counted for each experiment.

[7] = tested on: Sprague-Dawley albino rats, light-induced photoreceptor cell death; format: in vivo; conditions: PBN
Excerpt: The aim of this study was to investigate the dose effect of XG-102 on light-induced photoreceptor cell death.
50 male Rat (Sprague-Dawley (albinos rat); approximately 8 weeks; 200-250 g (on ordering)) have been used. Rats are most commonly used in this experimental model. Animals were examined before study, and particular attention was paid to the eyes. Animals were held in observation for 2 weeks following their arrival. Animals were observed daily for signs of illness. Only healthy animals with no ocular abnormalities were accepted for use in experiments. Animals were housed individually in standard cages (420×270×190 mm)^ii. All animals were housed under identical environmental conditions. The temperature was held at 22±2° C. and the relative humidity at 55±10%. Rooms were continuously ventilated (15 times per hour). A cycle of 12 hours light (200-300 lx) and 12 hours darkness was automatically controlled. These parameters were continuously controlled and recorded. Throughout the study, animals had free access to food and water. They were fed a standard dry pellet diet. Tap water was available ad libitum from plastic bottles.
Forty-eight (48) rats were randomly divided into six (6) groups of eight (8) animals each. Test item (XG-102: 30 mg/ml, 3 mg/ml, and 0.3 mg/ml) and vehicle (0.9% NaCl) were administered by intravitreal injection in right eyes the day before induction. The reference (Phenyl-N-test-Butylnitrone (PBN) (50 mg/kg)) and vehicle were intraperitoneally injected 30 min before induction then, 3 times during 12 hours of light exposition, then once after induction. Animals were placed in constant light (7000 lux) for 24 h. Electroretinograms (ERG) were recorded before light treatment and on days 9, 16 and 23 after induction. Eyes were then taken for histology and outer nuclear layer (ONL) thickness assessment. The table below summarizes the allocation of animals in treatment groups:
For the intravitreal injection animals were anesthetized by intramuscular injection of a mixture of xylazine/ketamine. Test item (5 μl) and vehicle (5 μl) were injected in the right eye. The injection was performed under an operating microscope in the supratemporal area at pars plana using a 33G-needle mounted on a 50 μl Hamilton. The filled syringe was mounted into the UltraMicroPump III to achieve accurate injection in microliter range. Reference and vehicle were injected intraperitoneally at a dose volume of 2.5 ml/kg using a 30G-needle mounted on a 1 ml-syringe.
Light Exposure: The rats that had been dark-adapted overnight were exposed for 24 hours to a continuous white fluorescent light (7000 Ix) in clear plastic cages. Each cage contained one rat. After exposure, the rats returned to rearing cyclic light conditions.
ERG was recorded before induction and 7, 14 and 21 days after cessation of exposure (Days 9, 16 and 23) on right eyes of dark-adapted and anesthetized animals. The latency times (for a- and b-wave) and the a-wave and b-wave amplitudes were measured for each ERG; the latency times were expressed as millisecond and the a-wave and b-wave as a percentage of the baseline value obtained before light exposure. 15 min before measurement 10 μl Mydriaticum® (0.5% tropicamide) were instilled for pupillary dilatation.
ERG Parameters: • Color: white maximum. • Maximum intensity: 2.6 cd·s/m^2 (0 dB); Duration 0.24 ms; number of flash: 1. • Filter: 50 Hz. • Impedence Threshold: 90 kΩ.
Measurement of the ONL Thickness: After ERG testing, animal was euthanized by an overdose of pentobarbital and the right eyes were enucleated, fixed and embedded in paraffin. Sections (5 μm thick) were performed along the vertical meridian and stained with Trichrome-Masson. The vertical meridian included the optic nerve.
Group mean values and standard deviation were calculated. A statistical Mann and Whitney test was used to evaluate the differences between pair-wise groups. For comparison between time-point into each vehicle groups, a Friedman test was used. […]

[8] = Dexamethasone group, blinded assessment

## CC(C)Cc1ccc(C(C)C(=O)O)cc1 (stereo not shown) [ibuprofen]
[1]
  nociceptive scores: significantly decrease nociceptive scores
  nociceptive threshold: Nociceptive threshold was significantly increased by ibuprofen treatment
[2]
  haemorrhage scores: no significant change was observed regarding haemorrhage scores
  nociceptive scores: significant decrease of nociceptive scores
  urinary bladder wall thickness: a significant decrease was observed in urinary bladder wall thickness
[2]; vs vehicle
  nociceptive threshold: Nociceptive threshold was significantly increased by ibuprofen treatment

## C[C@@H]1C[C@H]2[C@@H]3CCC4=CC(=O)C=C[C@]4(C)[C@@]3(F)[C@@H](O)C[C@]2(C)[C@@]1(O)C(=O)CO [Dexamethasone, reference compound]
[3]; Dexamethasone dose group
  Reported AEs by severity: Mild: 42 (76.4%) number of events (% of reported events)
  Reported AEs by severity: Moderate: 9 (16.4%) number of events (% of reported events)
  Reported AEs by severity: Severe: 4 (7.3%) number of events (% of reported events)
[3]; [8]
  AEs considered by the Investigator to be related to Dexamethasone: 2 (3.6%) Total # events (%)
  AEs considered by the Investigator to be related to XG-102: 13 (23.64%) Total # events (%)
[3]; dexamethasone
  Intraocular pressure increased, patients: 14%
  events in SOC EYE DISORDERS: 30 events
  patients with SAEs: 2 patients
  patients with events in SOC EYE DISORDERS: 16 (32%)

## PGTGCGDTYRPKRPTTLNLFPQVPRSQDT (Description of sequence peptide IB1-long (see Table 1))
[4]
  efficiency in binding JNK relative to c-Jun or ATF2: approximately 100 fold

## GRKKRRQRRRPPRPKRPTTLNLFPQVPRSQD [L-TAT-IB1(s)]
[5]
  entry into cells: efficiently and rapidly (less than five minutes) entered cells

## TDQSRPVQPFLNLTTPRKPRYTDPPRRRQRRKKRG ([dT][dD][dQ][dS][dR][dP][dV][dQ][dP][dF][dL][dN][dL][dT][dT][dP][dR][dK][dP][dR][dY][dT][dD][dP][dP][dR][dR][dR][dQ][dR][dR][dK][dK][dR]G) [D-TAT-IB1]
[6]
  IL-1 induced apoptosis: decreased IL-1 induced apoptosis to a similar extent as L-TAT-IB peptides

## GRKKRRQRRR (Description of sequence Peptide L-TAT (see Table 1))
[5]
  entry into cells: efficiently and rapidly (less than five minutes) entered cells

## CC(C)(C)[N+]([O-])=Cc1ccccc1 [PBN, Phenyl-N-tert-Butylnitrone]
[7]; Day 9
  recovery of the b-wave (% of baseline): 100%
[7]; Day 16
  recovery of the b-wave (% of baseline): 103.6%
[7]; Day 23
  decrease of ONL thickness vs untreated eyes: 16%
  recovery of the a-wave (% of baseline): 76.2%
  recovery of the b-wave (% of baseline): 102.4%

## IPSPSVEEPHKHRPTTLRLTTLGAQDS (Description of sequence Peptide IB2-long (see Table 1))
[4]
  efficiency in binding JNK relative to c-Jun or ATF2: approximately 100 fold
